According to ChEMBL document CHEMBL4152333, “Structure-activity relationships in fungal nucleobases transporters as dissected by the inhibitory effects of novel purine analogues” (Eur J Med Chem, 2018):
Active and inactive are the calls of the source. The rule behind the calls is not given here.

Assays:
Fungi [1] = assay: Inhibition of fungal FcyB expressed in Aspergillus nidulans assessed as FcyB-mediated [2,8-3H]-adenine accumulation rate at 500 uM relative to untreated control; design: scale not given: the % may be the effect or the level left
[2] = molecular target: Uric acid-xanthine permease (Emericella nidulans (strain FGSC A4 / ATCC 38163 / CBS 112.46 / NRRL194 / M139) (Aspergillus nidulans)) (UniProt Q07307); assay: Inhibition of fungal UapA expressed in Aspergillus nidulans assessed as reduction in UapA-mediated [8-3H]-xanthine accumulation at 0.5 mM; settings: Fungi
Sequence of Uric acid-xanthine permease (Emericella nidulans (strain FGSC A4 / ATCC 38163 / CBS 112.46 / NRRL194 / M139) (Aspergillus nidulans)) (Q07307 whole entry, looked up): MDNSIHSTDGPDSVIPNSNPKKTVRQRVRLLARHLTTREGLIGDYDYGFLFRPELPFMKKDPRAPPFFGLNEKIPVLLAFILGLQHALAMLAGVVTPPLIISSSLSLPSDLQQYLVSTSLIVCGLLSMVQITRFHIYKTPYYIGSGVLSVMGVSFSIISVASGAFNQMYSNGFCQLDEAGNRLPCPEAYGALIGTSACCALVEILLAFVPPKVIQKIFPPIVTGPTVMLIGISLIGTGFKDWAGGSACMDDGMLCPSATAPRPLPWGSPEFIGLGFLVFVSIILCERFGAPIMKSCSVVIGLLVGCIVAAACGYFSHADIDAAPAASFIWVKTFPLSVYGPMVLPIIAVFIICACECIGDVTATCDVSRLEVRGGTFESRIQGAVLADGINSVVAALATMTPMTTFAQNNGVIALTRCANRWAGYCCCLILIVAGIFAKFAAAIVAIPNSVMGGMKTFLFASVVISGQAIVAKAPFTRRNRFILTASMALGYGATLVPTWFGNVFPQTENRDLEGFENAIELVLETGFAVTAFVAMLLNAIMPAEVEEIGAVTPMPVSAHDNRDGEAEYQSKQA

[3] = Inhibition of fungal FcyB expressed in Aspergillus nidulans assessed as reduction in FcyB-mediated [2,8-3H]-adenine accumulation; design: species or system Fungi
Fungi [4] = assay: Inhibition of fungal FcyB expressed in Aspergillus nidulans assessed as reduction in FcyB-mediated at 0.5 mM
[5] = molecular target: T1, Uncharacterized protein (Emericella nidulans (strain FGSC A4 / ATCC 38163 / CBS 112.46 / NRRL194 / M139) (Aspergillus nidulans)) (UniProt G5EB00); assay: Inhibition of fungal AzgA expressed in Aspergillus nidulans assessed as reduction in AzgA-mediated [2,8-3H]-adenine accumulation at 0.5 mM; settings: Fungi
T1 sequence (whole entry): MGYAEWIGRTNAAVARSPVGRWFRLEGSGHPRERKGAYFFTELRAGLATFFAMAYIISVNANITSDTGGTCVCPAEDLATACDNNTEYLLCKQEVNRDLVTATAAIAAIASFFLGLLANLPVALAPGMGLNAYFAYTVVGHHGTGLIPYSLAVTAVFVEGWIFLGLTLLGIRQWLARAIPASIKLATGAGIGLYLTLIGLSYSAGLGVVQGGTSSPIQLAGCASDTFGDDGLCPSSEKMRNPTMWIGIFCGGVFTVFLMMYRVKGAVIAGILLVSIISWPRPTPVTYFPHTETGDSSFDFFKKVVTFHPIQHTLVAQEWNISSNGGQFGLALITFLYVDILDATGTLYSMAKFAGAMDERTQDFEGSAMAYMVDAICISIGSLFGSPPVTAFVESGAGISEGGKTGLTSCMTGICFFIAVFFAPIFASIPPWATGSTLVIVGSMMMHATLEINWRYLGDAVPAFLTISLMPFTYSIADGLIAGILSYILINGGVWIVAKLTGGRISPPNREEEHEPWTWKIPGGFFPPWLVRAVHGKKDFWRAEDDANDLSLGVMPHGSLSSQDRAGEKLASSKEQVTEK

Uncharacterized protein = molecular target: T2, Uncharacterized protein (Emericella nidulans (strain FGSC A4 / ATCC 38163 / CBS 112.46 / NRRL194 / M139) (Aspergillus nidulans), UniProt G5EB00); assay: Inhibition of fungal AzgA expressed in Aspergillus nidulans assessed as reduction in AzgA-mediated [2,8-3H]-adenine accumulation; design: species or system Fungi
T2 sequence (G5EB00 whole entry): T1 sequence (whole entry)

inhibition [2]	Ki [3]	SMILES	also measured
inactive	49 µM	CN1CCN(c2nccc3[nH]c(-c4ccccc4O)nc23)CC1	Activity (Fungi [1]): < 10%
inactive	–	Nc1ccnc2c1nc(-c1ccccc1O)n2Cc1ccccc1	inhibition (Fungi [4]): inactive
inactive	74 µM	Oc1nc2c(NCc3ccccc3)nccc2[nH]1	–
inactive	–	Sc1nc2c(NCc3ccccc3)nccc2[nH]1	–
inactive	–	O=[N+]([O-])c1ccc(-c2nc3c(NCc4ccccc4)nccc3[nH]2)cc1	–
inactive	–	Nc1ccnc2c1nc(O)n2Cc1ccccc1	inhibition (Fungi [4]): inactive
–	5 µM	CC(C)n1cnc2c(NCc3ccccc3)nccc21	–
inactive	–	Nc1ccnc2c1nc(S)n2Cc1ccccc1	inhibition (Fungi [4]): inactive
inactive	82 µM	Oc1ccccc1-c1nc2c(NCc3ccccc3)nccc2[nH]1	inhibition [5]: Active; Activity (Fungi [1]): < 10%; Ki (Uncharacterized protein): 58 µM
inactive	42 µM	COc1ccc(OC)c(-c2nc3c(NCc4ccccc4)nccc3[nH]2)c1	inhibition [5]: Active; Activity (Fungi [1]): < 10%
inactive	72 µM	c1ccc(CNc2nccc3[nH]c(-c4ccncc4)nc23)cc1	inhibition [5]: Active; Activity (Fungi [1]): < 10%

The remaining lines, values behind:

SMILES	inhibition [2]	Ki [3]	also measured
Nc1[nH]cnc2ncnc1-2 [ADENINE]	–	7 µM	–
CN1CCN(c2nccc3[nH]c(O)nc23)CC1	inactive	19 µM	Activity (Fungi [1]): < 10%
COc1ccc(OC)c(-c2nc3c(N4CCN(C)CC4)nccc3[nH]2)c1	inactive	100 µM	Activity (Fungi [1]): < 10%
CN1CCN(c2nccc3[nH]c(-c4ccncc4)nc23)CC1	inactive	–	–
CN1CCN(c2nccc3c2nc(-c2ccccc2O)n3Cc2ccccc2O)CC1	inactive	–	inhibition (Fungi [4]): inactive
CN1CCN(c2nccc3[nH]c(S)nc23)CC1	inactive	–	–
Nc1ccnc2c1nc(-c1ccncc1)n2Cc1ccccc1	inactive	–	inhibition (Fungi [4]): inactive
CN1CCN(c2nccc3[nH]c(-c4ccc([N+](=O)[O-])cc4)nc23)CC1	inactive	106 µM	inhibition [5]: Active
COc1ccc(OC)c(-c2nc3c(N)ccnc3n2Cc2ccccc2)c1	inactive	–	inhibition (Fungi [4]): inactive
Nc1ccnc2c1nc(-c1ccc([N+](=O)[O-])cc1)n2Cc1ccccc1	inactive	–	inhibition (Fungi [4]): inactive
O=c1[nH]cnc2nc[nH]c12 [HYPOXANTHINE]	–	11 µM	–
CN1CCN(c2nccc3c2ncn3C2CCCC2)CC1	–	38 µM	–
CN1CCN(c2nccc3c2nc(-c2ccncc2)n3Cc2ccncc2)CC1	inactive	–	–
